ChEMBL document CHEMBL5316337, “Critical Role of Position 10 Residue in the Polymyxin Antimicrobial Activity” (J Med Chem, 2023)
Converted amounts (≈) assume the structure as drawn.

What was measured:
Type in all cases: functional
[1] = tested on: Klebsiella pneumoniae; assay: Antibacterial activity against Carbapenem-resistant Klebsiella pneumoniae FADD1-KP065 clinical isolates assessed as reduction in bacterial growth by broth microdilution method
[2] = tested on: Klebsiella pneumoniae; assay: Antibacterial activity against Carbapenem-resistant Klebsiella pneumoniae FADD1-KP032 clinical isolates assessed as reduction in bacterial growth by broth microdilution method
[3] = tested on: Enterobacter cloacae; assay: Antibacterial activity against polymyxin-susceptible Enterobacter cloacae FADD1-EC001 clinical isolates assessed as reduction in bacterial growth by broth microdilution method
[4] = tested on: Acinetobacter baumannii; assay: Antibacterial activity against polymyxin-susceptible Acinetobacter baumannii ATCC 19606 clinical isolates assessed as reduction in bacterial growth by broth microdilution method
[5] = tested on: Acinetobacter baumannii; assay: Antibacterial activity against Carbapenem-resistant Acinetobacter baumannii FADD1-AB030 clinical isolates assessed as reduction in bacterial growth by broth microdilution method
[6] = tested on: Pseudomonas aeruginosa; assay: Antibacterial activity against Carbapenem-resistant Pseudomonas aeruginosa FADD1-PA001 clinical isolates assessed as reduction in bacterial growth by broth microdilution method
[7] = tested on: Acinetobacter baumannii; assay: Antibacterial activity against Carbapenem-resistant Acinetobacter baumannii FADD1-AB034 clinical isolates assessed as reduction in bacterial growth by broth microdilution method
[8] = tested on: Enterobacter cloacae; assay: Antibacterial activity against polymyxin-susceptible Enterobacter cloacae FADD1-EC006 clinical isolates assessed as reduction in bacterial growth by broth microdilution method
[9] = tested on: Klebsiella pneumoniae; assay: Antibacterial activity against Carbapenem-resistant Klebsiella pneumoniae FADD1-KP022 clinical isolates assessed as reduction in bacterial growth by broth microdilution method
[10] = tested on: Pseudomonas aeruginosa; assay: Antibacterial activity against polymyxin-susceptible Pseudomonas aeruginosa FADD1-PA038 clinical isolates assessed as reduction in bacterial growth by broth microdilution method
[11] = tested on: Acinetobacter baumannii; assay: Antibacterial activity against polymyxin-susceptible Acinetobacter baumannii ATCC 17978 clinical isolates assessed as reduction in bacterial growth by broth microdilution method
[12] = tested on: Enterobacter cloacae; assay: Antibacterial activity against polymyxin-susceptible Enterobacter cloacae FADD1-EC003 clinical isolates assessed as reduction in bacterial growth by broth microdilution method
[13] = tested on: Klebsiella pneumoniae; assay: Antibacterial activity against polymyxin-susceptible Klebsiella pneumoniae ATCC 700721 clinical isolates assessed as reduction in bacterial growth by broth microdilution method
[14] = tested on: Pseudomonas aeruginosa; assay: Antibacterial activity against Carbapenem-resistant Pseudomonas aeruginosa FADD1-PA022 clinical isolates assessed as reduction in bacterial growth by broth microdilution method
[15] = tested on: Pseudomonas aeruginosa; assay: Antibacterial activity against polymyxin-susceptible Pseudomonas aeruginosa FADD1-PA025 clinical isolates assessed as reduction in bacterial growth by broth microdilution method
[16] = tested on: Klebsiella pneumoniae; assay: Antibacterial activity against Carbapenem-resistant Klebsiella pneumoniae BM1 clinical isolates assessed as reduction in bacterial growth by broth microdilution method
[17] = tested on: Pseudomonas aeruginosa; assay: Antibacterial activity against polymyxin-susceptible Pseudomonas aeruginosa ATCC 27853 clinical isolates assessed as reduction in bacterial growth by broth microdilution method

SMILES | MIC [1] [µg/mL] | MIC [2] [µg/mL] | MIC [3] [µg/mL] | MIC [4] [µg/mL] | MIC [5] [µg/mL] | MIC [6] [µg/mL] | MIC [7] [µg/mL] | MIC [8] [µg/mL] | MIC [9] [µg/mL] | MIC [10] [µg/mL] | MIC [11] [µg/mL] | MIC [12] [µg/mL] | MIC [13] [µg/mL] | MIC [14] [µg/mL] | MIC [15] [µg/mL] | MIC [16] [µg/mL] | MIC [17] [µg/mL]
C/C=C1/NC(=O)[C@H](CCN)NC(=O)[C@H](CCN)NC(=O)[C@H](CC(C)C)NC(=O)[C@@H](Cc2ccccc2)NC(=O)[C@H](CCN)NC(=O)[C@@H](NC(=O)[C@H](CCN)NC(=O)[C@@H](NC(=O)[C@H](CCN)NC(=O)CCCC[C@@H](C)CC)[C@@H](C)O)CCNC1=O | 4 (≈ 3.37 µM) | 8 (≈ 6.75 µM) | > 32 | 4 (≈ 3.37 µM) | 2 (≈ 1.69 µM) | 4 (≈ 3.37 µM) | 2 (≈ 1.69 µM) | > 32 | 2 (≈ 1.69 µM) | 16 (≈ 13.5 µM) | 1 (≈ 0.844 µM) | > 32 | 16 (≈ 13.5 µM) | 1 (≈ 0.844 µM) | 2 (≈ 1.69 µM) | 8 (≈ 6.75 µM) | 2 (≈ 1.69 µM)
CC[C@H](C)CCCCC(=O)N[C@@H](CCN)C(=O)N[C@H](C(=O)N[C@@H](CCN)C(=O)N[C@H]1CCNC(=O)[C@H](C(C)(C)O)NC(=O)[C@H](CCN)NC(=O)[C@H](CCN)NC(=O)[C@H](CC(C)C)NC(=O)[C@@H](Cc2ccccc2)NC(=O)[C@H](CCN)NC1=O)[C@@H](C)O | 1 (≈ 0.821 µM) | 2 (≈ 1.64 µM) | 16 (≈ 13.1 µM) | 8 (≈ 6.57 µM) | 8 (≈ 6.57 µM) | 2 (≈ 1.64 µM) | 8 (≈ 6.57 µM) | 16 (≈ 13.1 µM) | 1 (≈ 0.821 µM) | 8 (≈ 6.57 µM) | 8 (≈ 6.57 µM) | 4 (≈ 3.29 µM) | 4 (≈ 3.29 µM) | 1 (≈ 0.821 µM) | 2 (≈ 1.64 µM) | 1 (≈ 0.821 µM) | 1 (≈ 0.821 µM)
CC[C@H](C)CCCCC(=O)N[C@@H](CCN)C(=O)N[C@H](C(=O)N[C@@H](CCN)C(=O)N[C@H]1CCNC(=O)CNC(=O)[C@H](CCN)NC(=O)[C@H](CCN)NC(=O)[C@H](CC(C)C)NC(=O)[C@@H](Cc2ccccc2)NC(=O)[C@H](CCN)NC1=O)[C@@H](C)O | 0.5 (≈ 0.431 µM) | 4 (≈ 3.45 µM) | 4 (≈ 3.45 µM) | > 32 | > 32 | 1 (≈ 0.862 µM) | 32 (≈ 27.6 µM) | 4 (≈ 3.45 µM) | 1 (≈ 0.862 µM) | 8 (≈ 6.9 µM) | 4 (≈ 3.45 µM) | 4 (≈ 3.45 µM) | 8 (≈ 6.9 µM) | 0.5 (≈ 0.431 µM) | 2 (≈ 1.72 µM) | > 32 | 0.5 (≈ 0.431 µM)
